This is an account of results in ChEMBL document CHEMBL5725356, “Anti-fibrotic pyridinones” (2017).

This test in a line: ET-1 Assay: Fibroblasts (primary human lung and dermal, HFL-1, 3T3 etc) are seeded in 96-well plates at ~15000 cells/well and serum starved for 0-48 hours. After media exchange, compounds serially diluted in DMSO are added to the cells. After a brief incubation of ~30 min, stimulants (TGFb, serum, LPA etc) are added followed by further incubation for 16-48 hours. Media is then harvested and stored frozen in plate format for later endothelin-1 (ET-1) determination by ELISA. Toxicity measurements are made using the ATPlite kit (Perkin-Elmer). ET-1 is quantified using an ELISA kit (R&D Systems). The amount of ET-1 produced in the assay wells are back-calculated using the ELISA standard. The ability of a compound to inhibit ET-1 production is typically analyzed by fitting dose-response curves to a 4-parameter logistic function to obtain an EC50 value. Particulars: HFL1.
Take `Cc1n[nH]c(C)c1-c1ccc(=O)n(-c2ccncc2)c1`: the 50% effective concentration (EC50) is over 200 µM.
To `COc1ccc(-n2cc(C)ccc2=S)cc1` belongs over 200 µM.
For `O=c1ccc(-c2cccc(Cl)c2)cn1-c1ccccc1`, the concentration giving a half-maximal response (EC50) entry was “in the range around 125 µM”.
Consider `CCOc1ccc(-n2cc(-c3cnn(C)c3)c(Oc3ccccc3)cc2=O)c(C)c1`, for which the EC50 was under 50 µM.
To `Cn1cc(-c2cnc(=O)n(-c3ccccc3)c2)cn1` belongs over 200 µM.
To `O=c1ccc(-c2cn[nH]c2)cn1-c1ccc(F)cc1` belongs “in the range around 125 µM”; to `Cc1ccc(=O)n(-c2ccccc2F)c1`, over 200 µM.
With `Cn1cc(-c2ccc(=O)n(-c3ccccc3)n2)cn1` the figure was over 200 µM; with `Cc1ccc(=S)n(-c2ccc(OC(C)C)cc2)c1`, over 200 µM; with `Cc1cc(=O)n(-c2ccc(OC(F)(F)F)cc2)cc1C(F)(F)F`, over 200 µM.
As to `C#Cc1ccc(=O)n(-c2ccccc2)c1`, the EC50 was over 200 µM.
To `CCOc1ccc(-n2cc(-c3cccc(Cl)c3)ccc2=O)c(C)c1` belongs under 50 µM; to `Cc1n[nH]c(C)c1-c1ccc(=O)n(-c2ccc(OC(C)C)cc2)c1`, “in the range around 125 µM”; to `CC(C)Oc1ccc(-n2cc(-c3cccc(Cl)c3)ccc2=O)cc1`, under 50 µM.
Regarding `O=c1ccc(-c2cccc(Cl)c2)cn1-c1ccccc1F`, the half-maximal effective concentration (EC50) entry is “in the range around 125 µM”.
To `O=c1ccc(-c2ccccc2)cn1-c1ccc(F)cc1` belongs “in the range around 125 µM”; to `O=c1ccc(-c2ccccc2)cn1-c1ccccc1Cl`, “in the range around 125 µM”; to `O=c1ccc(-c2cnn(Cc3ccccc3)c2)cn1-c1ccccc1`, “in the range around 125 µM”.
With `Cc1cc(=O)n(-c2ccccc2)cc1C` the figure was over 200 µM; with `COc1ccc(-c2ccc(=O)n(-c3cncnc3)c2)cc1`, over 200 µM; with `O=c1ccc(-c2ccccc2)cn1-c1cncnc1`, over 200 µM.
As for `O=c1ccc(-c2cn[nH]c2)cn1-c1cccc(C(F)(F)F)c1`, the EC50 was over 200 µM.
In the case of `Cn1cc(-c2cn(-c3ccc(Cl)cc3)c(=O)c3nccnc23)cn1`, the EC50 is over 200 µM.
Regarding `O=c1ncc(-c2ccc(F)cc2)cn1-c1ccc(OC(F)(F)F)cc1`, the concentration for a half-maximal effect (EC50) is over 200 µM.
With `O=c1c2c(ccn2Cc2ccccc2)c(-c2ccc(F)cc2)cn1-c1ccc(OC(F)(F)F)cc1` the figure was over 200 µM.
For the compound `O=c1ccc(-c2ccccc2)cn1-c1ccncc1`, the concentration giving a half-maximal response (EC50) was over 200 µM.
With `Cc1n[nH]c(C)c1-c1ccc(=O)n(-c2cccc(C(F)(F)F)c2)c1` the entry was “in the range around 125 µM”; with `N#Cc1cc(=O)n(-c2ccc(OC(F)(F)F)cc2)cc1-c1ccc(F)cc1`, over 200 µM.
To `COc1ccc(-n2cc(-c3cn[nH]c3)ccc2=O)cc1` belongs over 200 µM; to `COc1cccc(-n2cc(-c3cn[nH]c3)ccc2=O)c1`, over 200 µM; to `Cn1cc(-c2cn(-c3ccc(C#N)cc3)c(=O)c3cccnc23)cn1`, “in the range around 125 µM”.
In the case of `Cc1n[nH]c(C)c1-c1ccc(=O)n(-c2cccc(F)c2)c1`, the concentration for a half-maximal effect (EC50) was over 200 µM.
As for `CCOc1ccc(-n2cc(-c3cn[nH]c3)ccc2=O)c(C)c1`, the concentration giving a half-maximal response (EC50) is under 50 µM.
On to `Cn1cc(-c2cn(-c3ccc(OC(F)(F)F)cc3)c(=O)cc2NCc2ccc(F)cc2F)cn1`, for which the concentration for a half-maximal effect (EC50) is under 50 µM.
With `O=c1ccc(-c2ccc(F)cc2)nn1-c1ccc(OC(F)(F)F)cc1` the figure was over 200 µM; with `O=c1ncc(-c2ccc(F)cc2)cn1-c1ccccc1`, “in the range around 125 µM”.
On to `Cn1cc(-c2ccc(=O)n(-c3ccc(OC(F)(F)F)cc3)n2)cn1`, for which the EC50 was over 200 µM.
Turning to `Cc1ccc(=S)n(-c2ccc(F)cc2)c1`, the half-maximal effective concentration (EC50) is over 200 µM.
With `O=c1ccc(-c2cccc(Cl)c2)cn1-c1ccncc1` the figure was over 200 µM; with `O=c1ccc(-c2cncnc2)cn1-c1ccccc1F`, over 200 µM; with `O=c1ccc(-c2cccc(Cl)c2)cn1-c1cccc(F)c1`, under 50 µM.
To `Cc1cc(-c2ccc(F)cc2)cn(-c2ccc(OC(F)(F)F)cc2)c1=O` belongs “in the range around 125 µM”; to `Cc1cc(-c2cnn(C)c2)cn(-c2ccc(OC(F)(F)F)cc2)c1=O`, “in the range around 125 µM”.
To `Cn1cc(-c2cn(-c3ccc(OC(F)(F)F)cc3)c(=O)c3c2ccn3C)cn1` belongs under 50 µM.
Regarding `Cc1n[nH]c(C)c1-c1ccc(=O)n(-c2ccc(OC(F)(F)F)cc2)c1`, the half-maximal effective concentration (EC50) result is “in the range around 125 µM”.
In the case of `CN1C(=O)COc2c(-c3cnn(C)c3)cn(-c3ccc(OC(F)(F)F)cc3)c(=O)c21`, the EC50 was over 200 µM.
For the compound `O=c1ccc(-c2ccc(F)cc2)cn1-c1ccccc1F`, the concentration for a half-maximal effect (EC50) entry is “in the range around 125 µM”.
With `Cn1cc(-c2cn(-c3ccc(C#N)cc3)c(=O)c3nccnc23)cn1` the figure was over 200 µM; with `COc1ccc(-c2ccc(=O)n(-c3ccccc3F)c2)cc1`, over 200 µM.
With `CC(C)c1ccc(=O)n(-c2ccccc2)c1` the figure was over 200 µM; with `COc1ccc(-n2cc(-c3ccc(S(N)(=O)=O)cc3)ccc2=O)cc1`, over 200 µM.
With `Cc1cc(-c2ccc(F)cc2)cn(-c2ccccc2)c1=O` the figure was under 50 µM.
Turning to `COc1ccc(-c2ccc(=O)n(-c3ccc(Cl)cc3)c2)cc1`, the EC50 result was “in the range around 125 µM”.
With `CC(C)n1cc(-c2ccc(=O)n(-c3ccccc3)c2)cn1`, the concentration for a half-maximal effect (EC50) is over 200 µM.
With `O=c1ccc(-c2cncnc2)cn1-c1cccc(F)c1` the figure was over 200 µM; with `COc1ccc(-c2ccc(=O)n(-c3ccccc3Cl)c2)cc1`, “in the range around 125 µM”.
As for `Cc1ccc(=O)n(-c2ccc(OC(F)(F)F)cc2)n1`, the EC50 is under 50 µM.
`O=c1ccc(-c2cccc(Cl)c2)cn1-c1ccccc1Cl`: the 50% effective concentration (EC50) was under 50 µM.
`Cc1n[nH]c(C)c1-c1ccc(=O)n(-c2ccc(F)cc2)c1`: the EC50 was over 200 µM.
Regarding `O=c1ccc(-c2cccc(Cl)c2)cn1-c1ccc(Cl)cc1`, the half-maximal effective concentration (EC50) is under 50 µM.
As for `Cn1cc(-c2cnc(=O)n(-c3ccc(OC(F)(F)F)cc3)c2)cn1`, the EC50 was over 200 µM.
With `COc1cccc(-n2cc(-c3cccc(Cl)c3)ccc2=O)c1` the figure was under 50 µM.
With `O=c1ccc(-c2cncnc2)cn1-c1ccc(F)cc1` the figure was over 200 µM; with `NS(=O)(=O)c1ccc(-c2ccc(=O)n(-c3ccc(Cl)cc3)c2)cc1`, over 200 µM; with `O=c1ccc(-c2cn[nH]c2)cn1-c1cccc(F)c1`, over 200 µM.
To `CC(C)Oc1ccc(-n2cc(-c3ccc(F)cc3)ccc2=O)cc1` belongs “in the range around 125 µM”; to `O=c1ccc(-c2cn[nH]c2)cn1-c1ccc(Cl)cc1`, over 200 µM; to `O=c1ccc(-c2cccc(Cl)c2)cn1-c1cccc(C(F)(F)F)c1`, under 50 µM.
Take `COc1cccc(-n2cc(-c3c(C)n[nH]c3C)ccc2=O)c1`: the EC50 result is “in the range around 125 µM”.
As to `Cc1cc(=O)n(-c2ccc(OC(F)(F)F)cc2)cc1C`, the concentration for a half-maximal effect (EC50) is over 200 µM.
With `COc1cccc(-n2cc(-c3ccc(S(N)(=O)=O)cc3)ccc2=O)c1` the figure was over 200 µM; with `O=C1NC=CCN1c1ccccc1`, over 200 µM.
For the compound `O=c1ccc(-c2cn[nH]c2)cn1-c1ccc(OC(F)(F)F)cc1`, the EC50 was under 50 µM.
To `O=c1c2nccnc2c(-c2cn[nH]c2)cn1-c1ccc(OC(F)(F)F)cc1` belongs under 50 µM; to `COc1ccc(-n2cc(-c3cccc(Cl)c3)ccc2=O)cc1`, under 50 µM.
With `CCOc1ccc(-n2cc(-c3ccccc3)ccc2=O)c(C)c1` the entry was “in the range around 125 µM”; with `Cc1ccc(=S)n(-c2cccc(F)c2)c1`, over 200 µM; with `Cc1cc(-c2cnn(C)c2)cn(-c2ccccc2)c1=O`, “in the range around 125 µM”.
With `O=c1ccc(-c2ccc(F)cc2)cn1-c1ccccc1Cl` the figure was over 200 µM; with `NS(=O)(=O)c1ccc(-c2ccc(=O)n(-c3cccc(C(F)(F)F)c3)c2)cc1`, over 200 µM.
Take `O=c1ccc(-c2ccc(F)cc2)cn1-c1cccc(C(F)(F)F)c1`: the EC50 result was “in the range around 125 µM”.
Regarding `Cc1cc(C)c(=O)n(-c2ccccc2)c1`, the concentration for a half-maximal effect (EC50) was over 200 µM.
`COc1ccc(-c2ccc(=O)n(-c3cccc(OC)c3)c2)cc1`: the 50% effective concentration (EC50) entry is “in the range around 125 µM”.
With `Cn1cc(-c2cn(-c3ccc(OC(F)(F)F)cc3)c(=O)c3c2OCC(=O)N3)cn1`, the half-maximal effective concentration (EC50) is over 200 µM.
With `Cn1cc(-c2cn(-c3ccc(OC(F)(F)F)cc3)c(=O)cc2C#N)cn1`, the EC50 was under 50 µM.
In the case of `CC(C)Oc1ccc(-n2cc(-c3ccc(S(N)(=O)=O)cc3)ccc2=O)cc1`, the EC50 is over 200 µM.
To `O=c1ccc(-c2ccccc2)cn1-c1cccc(F)c1` belongs over 200 µM; to `Cc1n[nH]c(C)c1-c1ccc(=O)n(-c2ccc(Cl)cc2)c1`, over 200 µM; to `Cc1ccc(=S)n(-c2ccc(OC(F)(F)F)cc2)c1`, “in the range around 125 µM”.
Consider `O=c1c2nccnc2c(-c2cn[nH]c2)cn1-c1ccc(Cl)cc1`, for which the concentration giving a half-maximal response (EC50) is over 200 µM.
With `Cc1ccc(=O)n(-c2cc(F)c(F)c(F)c2)c1` the figure was over 200 µM; with `Cc1ccc(=O)n(-c2ccccc2)n1`, over 200 µM; with `O=c1ccc(-c2ccnnc2)cn1-c1ccc(OC(F)(F)F)cc1`, “in the range around 125 µM”.
To `CCOc1ccc(-n2cc(-c3c(C)n[nH]c3C)ccc2=O)c(C)c1` belongs “in the range around 125 µM”.
Consider `O=c1cc2ccccc2cn1-c1ccccc1`, for which the concentration for a half-maximal effect (EC50) entry is “in the range around 125 µM”.
To `CC(C)Oc1ccc(-n2cc(-c3cn[nH]c3)ccc2=O)cc1` belongs “in the range around 125 µM”; to `Cc1c(-c2ccc(=O)n(-c3ccc(OC(F)(F)F)cc3)c2)cnn1C`, under 50 µM.

One may read the EC50 as the concentration at which the effect is half-maximal.
